Measurements from ChEMBL document CHEMBL1201862, “PubChem BioAssay data set” (2004).
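The compound was tested at five concentrations on cells cultured in 96-well plates, with a 48-hour exposure period. GI50: concentration for 50% inhibition of growth.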 Calls of active or inactive are those of the source. Rule as the data show it: active = GI50 up to about 1.1 µM and inactive = higher.

How the values were obtained:
Assay in all cases: growth of human tumour cells (NCI), 48 h
SNB-19 = test system: SNB-19
OVCAR-5 = test system: OVCAR-5
A498 = test system: A498
CCRF-CEM = test system: CCRF-CEM
RPMI-8226 = test system: RPMI-8226
ACHN = test system: ACHN
UO-31 = test system: UO-31
KM-20L2 = test system: KM-20L2
HCC 2998 = test system: HCC 2998
EKVX = test system: EKVX
HOP-92 = test system: HOP-92
OVCAR-8 = test system: OVCAR-8
MOLT-4 = test system: MOLT-4
RXF 393 = test system: RXF 393
K562 = test system: K562

Row | SMILES | GI50 (SNB-19) | GI50 (OVCAR-5) | GI50 (A498) | GI50 (CCRF-CEM) | GI50 (RPMI-8226) | GI50 (ACHN) | GI50 (UO-31) | GI50 (KM-20L2) | GI50 (HCC 2998) | GI50 (EKVX) | GI50 (HOP-92) | GI50 (OVCAR-8) | GI50 (MOLT-4) | GI50 (RXF 393) | GI50 (K562)
1 | CC(C)C(Sc1nc(-c2ccccc2)c(-c2ccccc2)[nH]1)C(=O)NNC(=S)Nc1ccccc1 (configuration not stated) | 41.9 µM (inactive) | 16.7 µM (inactive) | 26 µM (inactive) | 11.6 µM (inactive) | 10.9 µM (inactive) | 25.1 µM (inactive) | 17.8 µM (inactive) | 18.4 µM (inactive) | 0.0421 µM (active) | 23.8 µM (inactive) | 15.2 µM (inactive) | 21.5 µM (inactive) | 12.1 µM (inactive) | – | –
2 | COC(=O)C1=CNC(C(=O)OC)=NN1 | > 100 µM (inactive) | – | – | > 100 µM (inactive) | > 100 µM (inactive) | > 100 µM (inactive) | > 100 µM (inactive) | > 100 µM (inactive) | – | > 10 µM (inactive) | > 100 µM (inactive) | > 100 µM (inactive) | > 100 µM (inactive) | > 100 µM (inactive) | > 100 µM (inactive)
3 | O=C1c2ccccc2S[C@@H](O)[C@@H]2CCCN12 | > 100 µM (inactive) | > 100 µM (inactive) | – | > 100 µM (inactive) | > 100 µM (inactive) | > 100 µM (inactive) | > 100 µM (inactive) | > 100 µM (inactive) | > 100 µM (inactive) | > 100 µM (inactive) | > 100 µM (inactive) | > 100 µM (inactive) | > 100 µM (inactive) | > 100 µM (inactive) | > 100 µM (inactive)
4 | Cc1ccc(C2=[N+]([O-])c3ccccc3C2=O)cc1 | 31.9 µM (inactive) | 52.6 µM (inactive) | > 100 µM (inactive) | 11.9 µM (inactive) | 29.4 µM (inactive) | 16 µM (inactive) | > 56.1 µM (inactive) | 40.4 µM (inactive) | > 51.3 µM (inactive) | 24.7 µM (inactive) | 9.23 µM (inactive) | 17.3 µM (inactive) | 24.7 µM (inactive) | 17.7 µM (inactive) | 16.1 µM (inactive)
5 | Nc1ccccc1SC(/C=C/NNC1=NN=C(c2ccccc2)C(c2ccccc2)N1)c1ccccc1 (configuration not stated) | 18.7 µM (inactive) | 20.8 µM (inactive) | 20.4 µM (inactive) | 2.59 µM (inactive) | 2.96 µM (inactive) | 14.9 µM (inactive) | 4.45 µM (inactive) | 21 µM (inactive) | 16.5 µM (inactive) | 15.4 µM (inactive) | 8.57 µM (inactive) | 18.1 µM (inactive) | 3.64 µM (inactive) | 14 µM (inactive) | 9.25 µM (inactive)
6 | Cc1cc(C)cc(-n2c3nc(=O)n(C)c(=O)c-3nc3ccccc32)c1 | 22.1 µM (inactive) | 39.5 µM (inactive) | > 100 µM (inactive) | 23.2 µM (inactive) | 29.7 µM (inactive) | 27.4 µM (inactive) | 64.1 µM (inactive) | 19.4 µM (inactive) | 18.1 µM (inactive) | 17.7 µM (inactive) | – | 27.6 µM (inactive) | 23 µM (inactive) | > 100 µM (inactive) | 22.1 µM (inactive)
7 | CCc1ccc(Cc2ccc(CC)c(NC(=O)C(=O)C3NC(=S)NC3=O)c2CC)c(CC)c1NC(=O)C(=O)C1NC(=S)NC1=O (configuration not stated) | > 100 µM (inactive) | > 100 µM (inactive) | > 100 µM (inactive) | > 100 µM (inactive) | > 100 µM (inactive) | > 100 µM (inactive) | 51.8 µM (inactive) | > 100 µM (inactive) | > 100 µM (inactive) | > 100 µM (inactive) | 38 µM (inactive) | > 100 µM (inactive) | > 100 µM (inactive) | > 100 µM (inactive) | > 100 µM (inactive)
8 | C/C(=N\NC(=S)N(C)C)c1ncc[nH]1 | 4.42 µM (inactive) | 2.55 µM (inactive) | 3.94 µM (inactive) | 2.82 µM (inactive) | 4.2 µM (inactive) | 2.45 µM (inactive) | 2.1 µM (inactive) | 3.57 µM (inactive) | 3.52 µM (inactive) | 4.51 µM (inactive) | 2.47 µM (inactive) | 3.94 µM (inactive) | 3.06 µM (inactive) | 6 µM (inactive) | 2.59 µM (inactive)
9 | O=C1N(c2ccccc2)C2(O)C(=O)c3ccccc3C2(O)N1c1ccccc1 (configuration not stated) | > 100 µM (inactive) | > 100 µM (inactive) | > 100 µM (inactive) | > 100 µM (inactive) | > 100 µM (inactive) | > 100 µM (inactive) | > 100 µM (inactive) | > 100 µM (inactive) | > 100 µM (inactive) | > 100 µM (inactive) | – | > 100 µM (inactive) | > 100 µM (inactive) | > 100 µM (inactive) | > 100 µM (inactive)
